Measurements taken from article PMC11439058, “Exploiting the bile acid binding protein as transporter of a Cholic Acid/Mirin bioconjugate for potential applications in liver cancer therapy” (Scientific Reports, 2024).
Values joined by “and” are separate entries in the source; they are usually repeats but may differ in a detail not shown here. Equal entries are not always repeated. Where two headings read alike, the source gives them in different places.

What was measured:
in vitro [1] = assay: in vitro
Protocol: (§1) Plasma Stability and stability in the cellular medium. A DMSO stock solution of tested compounds was incubated in the presence of human plasma ([…]) and HEPES buffer (25 mM, 140 mM NaCl, pH 7.4) or DMEM 10% FBS, (1% PS, and 1% Glu) at 37 °C under shaking. At selected time points (0, 0.083, 0.25, 0.5, 1, 2, 8, 24 h), samples were treated with cold ACN to stop reactions through protein denaturation, and centrifuged at 5000 rpm for 10 min. The supernatant was analyzed by UV/LC-MS to monitor the amount of unmodified compound. Data were calculated with Excel and plotted using GraphPad Prism 8.0 (GraphPad Software Inc., San Diego, CA, USA). The half-life value (t1/2) was calculated with the following formula: [drawing 2]

[2] = Extraction recovery from denatured microsomes (matrix effect); details: human, Recovery (% Rec, Time 0'), denatured human liver microsomes
Text: Therefore, matrix effects were investigated by preparing fresh time-zero solutions made of denatured microsomes, solvent mix and tested compounds. To have a better correlation with the time-zero of the metabolic stability experiments, final volumes and concentrations used were not modified.
Extraction Recovery % (% Rec) of CA-M11 and Mirin in human liver microsomes. Data are reported as the mean ± standard deviation (SD) of n=3 experiments run in triplicates.

[3] = system: Salmonella typhimurium strain TA100; assay: Mutagenicity assay: Ames test, TA100; details: for concentration from which a mutagenic effect is shown: Salmonella typhimurium, 90 min
Protocol: (§2) Mutagenicity assay: Ames test. The TA100 and TA98 strains of Salmonella Typhimurium were utilized for mutagenicity assay. Approximately 107 bacteria were exposed to 6 concentrations of each test compound, as well as a positive and a negative control, for 90 min in a medium containing sufficient histidine to support approximately two cell divisions. After 90 min, the exposure cultures were diluted in pH indicator medium lacking histidine, and aliquoted into 48 wells of a 384-well plate. Within two days, cells which had undergone the reversion to His grew into colonies. Metabolism by the bacterial colonies reduced the pH of the medium, changing the color of that well. This color change can be detected visually or by a microplate reader. The number of wells containing revertant colonies were counted for each dose and compared to a zero-dose control. Each dose was tested in six replicates. The following concentrations of Mirin and CA-M11 were tested: 5; 10; 30; 50; 80 and 100 µM. The concentration values tested of Doxorubicin were: 0.3; 1.2; 1.8; 3.0; 6.0 and 30 µM. The experiments were then repeated adding to Doxorubicin concentrations ranging from 0.3 to 30 µM, respectively, Mirin 5 µM and CA-M11 5 µM.

HepG2 cells = assay: HepG2 cytotoxicity, Neutral Red Uptake; type: cell-based, Human
Protocol: (§3) Cell cultures and cytotoxicity assay. To evaluate the in vitro cytotoxicity of the test samples, the direct contact tests, proposed by ISO […], Biological evaluation of medical devices – Part 5: Tests for cytotoxicity: in vitro methods were used[71]. This test is suitable for sample with various shapes, sizes, or physical status (i.e. liquid or solid).
(§4) Evaluation of HepG2 viability. Cells were maintained in DMEM at 37 °C in a humidified atmosphere containing 5% CO2. The culture medium was supplemented with 10% fetal calf serum (FCS), 1% L-glutamine-penicillin-streptomycin solution, and 1% MEM Non-Essential Amino Acid Solution. Once at confluence, cells were washed with PBS 0.1 M, taken up with trypsin-EDTA solution and then centrifuged at 1000 rpm for 5 min. The pellet was re-suspended in medium solution (dilution 1:15).
(§5) The stock solutions of Mirin, Doxorubicin, and CA-M11 were prepared in DMSO. The following concentrations of Mirin and CA-M11 were tested: 5; 10; 20; 30; 40; 50; 60; 70; 80; 90 and 100 µM. […] Then, the experiments were repeated adding to Doxorubicin concentrations ranging from 0.3 to 6.0 µM, respectively, Mirin 5 µM, and CA-M11 5 µM. […] Each experiment was repeated 3 times, and all samples were set up in six replicates. A complete medium was used as negative control. […] At the end of the incubation, the routine culture medium was removed from each well, and cells were carefully rinsed with 1 mL of pre-warmed D-PBS. Multiwells were then gently blotted with paper towels. […] The cells were checked during the NR incubation for NR crystal formation. After incubation, the NR Medium was removed, cells were carefully rinsed with 1 mL of pre-warmed D-PBS. Then, the PBS was decanted and blotted from the wells and exactly 1 mL of NR Desorb solution was added to each sample. […] During this step the samples were covered in order to protect them from light. After 5 min from the plate shaker removal the absorbance was read at 540 nm by a UV/visible spectrophotometer (UV5, Mettler Toledo).

[4] = HepG2 cytotoxicity, Neutral Red Uptake; type: cell-based, Human; details: human
Protocol: as §3, §4, §5

in vitro [5] = assay: in vitro; remark: listed apart in the source
Protocol: as §1

[6] = system: Salmonella typhimurium strain TA98; assay: Mutagenicity assay: Ames test, TA98; details: for concentration from which a mutagenic effect is shown: Salmonella typhimurium, 90 min
Protocol: as §2

PAMPA assay = type: in vitro ADME; details: 4 h, rt
Protocol: PAMPA assay. The DMSO stock solution of each compound was diluted 1:1 v/v with phosphate buffer (PBS 10 mM, pH 7.4) to obtain donor solutions. Each well of the filter plate was covered with a 1% w/v L-α-phosphatidylcholine solution (PC) in dodecane used to mimic the phospholipidic bilayer and then added with the donor. In the acceptor plate, a mixture solution of DMSO/PBS 1:1 v/v was placed, and the sandwich was incubated at rt for 4 h under gentle shaking. At the end time point, samples were taken from both the upper and the lower plates and analyzed using the UV/LC-MS method described above. Apparent permeability (Papp cm/s x 10^−6) and membrane retention (MR %) was calculated as previously reported.

[7] = Microsomal (metabolic) stability; type: in vitro ADME; details: human liver microsomes
Protocol: Microsomal stability. In the presence of phosphate buffer (PBS 10 mM, pH 7.4), human liver microsomes (HLM) (0.2 mg mL^−1), and a NADPH solution in MgCl2 48 mM, each DMSO compound solution was incubated at 37 °C for 1 h under shaking. Then, the metabolizing reactions were stopped by adding cold acetonitrile (ACN). After centrifuging and drying the reaction mixes under N2 flow, the quantitative analyses were performed using the UV/LC-MS method previously described. The percentages of the metabolized and unmetabolized compounds were calculated as previously described[73],[74].

C[C@H](CCC(=O)Oc1ccc(/C=C2\SC(=N)NC2=O)cc1)[C@H]1CCC2C3C(C[C@H](O)[C@@]21C)[C@@]1(C)CC[C@@H](O)CC1C[C@H]3O (stereo partly drawn) [CA-M11, (4R)-4-((Z)-(2-Imino-4-oxothiazolidin-5-ylidene)methyl)phenyl 4-((3R,7R,10 S,12 S,13R,17R)-3,7,12-trihydroxy-10,13-dimethylhexadecahydro-1 H-cyclopenta[a]phenanthren-17-yl)pentanoate]
Plasma stability (% ± SD) (in vitro [1]; human, 0 h, pH 7.4): 72.79 ± 2.57% | Plasma stability (% ± SD) (in vitro [1]; human, 0.083 h, pH 7.4): 74.01 ± 0.65% | Plasma stability (% ± SD) (in vitro [1]; human, 0.25 h, pH 7.4): 72.29 ± 3.22% | Plasma stability (% ± SD) (in vitro [1]; human, 0.5 h, pH 7.4): 75.47 ± 0.04% | compound hydrolyzed by plasmatic esterases (in vitro [1]; human, pH 7.4): Approximately 30% | half-life (in vitro [1]; human, plasma, pH 7.4, t 1/2 (half-life) in plasma): ~18 h | recovery at 0 min [2]: < 70% | concentration from which a mutagenic effect is shown [3]: ≥ 10 µM | cytotoxic effect on HepG2 cells at 5 µM (HepG2 cells): does not exert a significant cytotoxic effect | increase of cell death in combination with Doxorubicin (HepG2 cells; 5 µM compound + Doxorubicin 2.4 µM, HepG2, 24 h): roughly 40% | IC50 at 24 h [4]: 40 µM | DMEM cell culture medium stability (% ± SD) (in vitro [5]; 0 h): 93.96 ± 5.76% | DMEM cell culture medium stability (% ± SD) (in vitro [5]; 0.083 h): 91.94 ± 0.85% | DMEM cell culture medium stability (% ± SD) (in vitro [5]; 0.25 h): 94.24 ± 0.37% | DMEM cell culture medium stability (% ± SD) (in vitro [5]; 0.5 h): 94.77 ± 0.60% | DMEM cell culture medium stability (% ± SD) (in vitro [5]; 1 h): 92.08 ± 2.15% | DMEM cell culture medium stability (% ± SD) (in vitro [5]; 2 h): 82.83 ± 3.38% | half-life (in vitro [5]; buffer): 21.7 h | concentration from which a mutagenic effect is shown [6]: ≥ 10 µM | Membrane retention MR (%) (PAMPA assay): 2.26 ± 0.64%

COc1cccc2c1C(=O)c1c(O)c3c(c(O)c1C2=O)C[C@@](O)(C(=O)CO)C[C@@H]3O[C@H]1C[C@H](N)[C@H](O)[C@H](C)O1 [Doxorubicin]
concentration from which a mutagenic effect is shown [3]: ≥ 10 µM | viability at 24 h, 0.3 µM ([4]; HepG2 cells, Doxorubicin 0.3 µM, 24 h, read-out: Percentage of viable HepG2 cells): 84.7% | viability at 24 h, 0.6 µM ([4]; HepG2 cells, Doxorubicin 0.6 µM, 24 h, read-out: Percentage of viable HepG2 cells): 73.4% | viability at 24 h, 1.2 µM ([4]; HepG2 cells, Doxorubicin 1.2 µM, 24 h, read-out: Percentage of viable HepG2 cells): 65% | viability at 24 h, 1.8 µM ([4]; HepG2 cells, Doxorubicin 1.8 µM, 24 h, read-out: Percentage of viable HepG2 cells): 49.9% | viability at 24 h, 2.4 µM ([4]; HepG2 cells, Doxorubicin 2.4 µM, 24 h, read-out: Percentage of viable HepG2 cells): 38.4% | viability at 24 h, 3 µM ([4]; HepG2 cells, Doxorubicin 3.0 µM, 24 h, read-out: Percentage of viable HepG2 cells): 28.3% | viability at 24 h, 6 µM ([4]; HepG2 cells, Doxorubicin 6.0 µM, 24 h, read-out: Percentage of viable HepG2 cells): 18.9% | viability at 24 h, 12 µM ([4]; HepG2 cells, Doxorubicin 12.0 µM, 24 h, read-out: Percentage of viable HepG2 cells): 5.8% | IC50 at 24 h ([4]; HepG2 cells, HepG2, 24 h, Neutral Red Uptake, read-out: IC50 (cytotoxic effect)): 1.8 µM | concentration from which a mutagenic effect is shown [6]: ≥ 10 µM

[H]/N=C1/NC(=O)C(=Cc2ccc(O)cc2)S1 [Mirin, (Z)-5-(4-Hydroxybenzylidene)-2-iminothiazolidin-4-one]
Plasma stability (% ± SD) (in vitro [1]; human plasma, time 0 h): 89.10 ± 1.03% | Plasma stability (% ± SD) (in vitro [1]; human plasma, time 0.083 h): 90.80 ± 0.13% | Plasma stability (% ± SD) (in vitro [1]; human plasma, time 0.25 h): 92.18 ± 1.34% | Plasma stability (% ± SD) (in vitro [1]; human plasma, time 0.5 h): 88.72 ± 3.98% | Plasma stability (% ± SD) (in vitro [1]; human plasma, time 1 h): 89.70 ± 2.23% | Plasma stability (% ± SD) (in vitro [1]; human plasma, time 2 h): 84.51 ± 2.93% | Plasma stability (% ± SD) (in vitro [1]; human plasma, time 8 h): 83.07 ± 2.40% | Plasma stability (% ± SD) (in vitro [1]; human plasma, time 24 h): 77.94% and 77.94 ± 2.30% | percentage of unmodified compound in plasma (in vitro [1]; human plasma, up to 8 h of incubation): ≥ 80% | recovery at 0 min [2]: 92.3 ± 1.92% | effect on Doxorubicin mutagenicity ([3]; 5 µM compound + Doxorubicin 0.3 to 30 µM, TA100): not able to affect Doxorubicin mutagenicity | Metabolic stability (%) ([7]; time 0 min): 92.32 ± 1.93% | Metabolic stability (%) ([7]; time 60 min): 90.65 ± 0.83% | IC50 at 24 h ([4]; HepG2, 24 h, Neutral Red Uptake, read-out: IC50 (cytotoxic effect)): 50 µM | half-life (in vitro [5]): > 100 h | stability percentage in DMEM cell culture medium (in vitro [5]; DMEM 10% FBS, all time points up to 24 h): above 90% | DMEM cell culture medium stability (% ± SD) (in vitro [5]; DMEM 10% FBS, time 0 h): 104.19 ± 1.20% | DMEM cell culture medium stability (% ± SD) (in vitro [5]; DMEM 10% FBS, time 0.083 h): 106.18 ± 0.16% | DMEM cell culture medium stability (% ± SD) (in vitro [5]; DMEM 10% FBS, time 0.25 h): 107.78 ± 1.57% | DMEM cell culture medium stability (% ± SD) (in vitro [5]; DMEM 10% FBS, time 0.5 h): 103.73 ± 2.61% | DMEM cell culture medium stability (% ± SD) (in vitro [5]; DMEM 10% FBS, time 1 h): 104.88 ± 6.37% | DMEM cell culture medium stability (% ± SD) (in vitro [5]; DMEM 10% FBS, time 2 h): 98.81 ± 3.43% | DMEM cell culture medium stability (% ± SD) (in vitro [5]; DMEM 10% FBS, time 8 h): 97.14 ± 2.81% | DMEM cell culture medium stability (% ± SD) (in vitro [5]; DMEM 10% FBS, time 24 h): 91.14 ± 2.70% | half-life (in vitro [5]; buffer): 114 h | effect on Doxorubicin mutagenicity ([6]; 5 µM compound + Doxorubicin 0.3 to 30 µM, TA98): not able to affect Doxorubicin mutagenicity | Membrane retention MR (%) (PAMPA assay): 1.16 ± 0.90%
